Laboratory results taken from paper PMC8123621, “Development of Novel Potential Pleiotropic Compounds of Interest in Alzheimer’s Disease Treatment through Rigidification Strategy” (Molecules, 2021).

What was measured:
human 5-HT6 receptors = molecular target: T1, human 5-HT6 receptors (Homo sapiens, UniProt P50406); assay: h5-HT6R radioligand displacement ([3H]-LSD); type: binding; conditions: 10^−6 M; 2.5 nM [3H]-LSD
T1 construct: purchased Perkin Elmer RBHS6M; host or cells: HEK-293 cells, transient expression
T1 sequence (P50406 whole entry): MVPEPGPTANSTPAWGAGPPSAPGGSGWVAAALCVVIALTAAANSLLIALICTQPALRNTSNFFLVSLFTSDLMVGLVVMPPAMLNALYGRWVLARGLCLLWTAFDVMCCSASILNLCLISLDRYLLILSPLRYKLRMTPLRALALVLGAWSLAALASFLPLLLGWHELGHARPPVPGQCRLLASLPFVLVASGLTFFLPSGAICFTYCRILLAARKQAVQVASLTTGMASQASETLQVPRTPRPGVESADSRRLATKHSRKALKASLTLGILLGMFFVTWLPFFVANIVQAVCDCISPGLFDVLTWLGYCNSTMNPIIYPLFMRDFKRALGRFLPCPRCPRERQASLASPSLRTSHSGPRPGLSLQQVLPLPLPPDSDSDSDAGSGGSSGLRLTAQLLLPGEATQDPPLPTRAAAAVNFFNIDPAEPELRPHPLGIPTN
Protocol: (§1) The inhibitory activity of novel analogs towards hAChE was evaluated according to the Ellman test.
Drugs were evaluated through their possibility to compete for the binding of [^3H]-LSD on membranes of HEK-293 cells transiently expressing the human 5-HT6 receptors (ref. RBHS6M, Perkin Elmer). […] At the end of the incubation, the homogenates were then filtered through Whatman GF/C filters and washed five times with ice-cold 25 mM Tris-HCl buffer. Non-specific binding was evaluated in the presence of 100 µM serotonin. Radioactivity associated to proteins was then quantified and expressed as the percentage of inhibition of the drugs under study.
(§2) For some of these compounds, affinity constants were calculated from five-point inhibition curves using the GraphPad Prism 6 software and expressed as Ki ± SD.

[1] = molecular target: T2, hAChE (AChE from human erythrocytes) (Homo sapiens, UniProt P22303); assay: biochemical; conditions: for IC50: mean ± SEM of three experiments, read-out: hAChE IC50 (nM) (n = 3); for inhibition at 1 µM: read-out: hAChE % Inhibition at 10^−6 M
T2 construct: AChE from human erythrocytes; purchased Sigma Aldrich; host or cells: human erythrocytes (tissue-derived enzyme)
T2 sequence (P22303 32-617 isoform P22303-2 limits assumed): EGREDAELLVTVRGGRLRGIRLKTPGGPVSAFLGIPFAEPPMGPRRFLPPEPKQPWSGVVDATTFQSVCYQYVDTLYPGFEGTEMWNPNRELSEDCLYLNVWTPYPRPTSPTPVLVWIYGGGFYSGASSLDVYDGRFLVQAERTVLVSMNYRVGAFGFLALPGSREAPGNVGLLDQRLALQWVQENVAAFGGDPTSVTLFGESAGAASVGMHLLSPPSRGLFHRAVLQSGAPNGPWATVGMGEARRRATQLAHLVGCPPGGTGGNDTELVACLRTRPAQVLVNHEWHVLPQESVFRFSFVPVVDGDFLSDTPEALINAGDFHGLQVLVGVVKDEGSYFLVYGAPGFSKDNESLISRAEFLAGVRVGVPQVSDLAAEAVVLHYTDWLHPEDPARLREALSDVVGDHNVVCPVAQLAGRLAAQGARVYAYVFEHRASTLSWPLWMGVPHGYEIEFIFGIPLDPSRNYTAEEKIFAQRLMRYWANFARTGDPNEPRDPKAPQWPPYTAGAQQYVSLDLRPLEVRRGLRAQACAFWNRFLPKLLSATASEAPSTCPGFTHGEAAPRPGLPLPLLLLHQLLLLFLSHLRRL
Protocol: as §1
Inhibitory capacity of compounds on AChE biological activity was evaluated through the use of the spectrometric method of Ellman. Acetylthiocholine iodide and 5,5-dithiobis-(2-nitrobenzoic) acid (DTNB) were purchased from Sigma Aldrich. AChE from human erythrocytes (buffered aqueous solution, ≥500 units/mg protein (BCA), Sigma Aldrich) was diluted in 20 mM HEPES buffer pH 8, 0.1% Triton X-100 such as to have enzyme solution with 0.25 unit/mL enzyme activity. In the procedure, 100 μL of 0.3 mM DTNB dissolved in phosphate buffer pH 7.4 were added into the 96 wells plate followed by 50 μL of test compound solution and 50 μL of enzyme ([…]). After 5 min of preincubation at 25 °C, the reaction was then initiated by the injection of 50 μL of 1 mM acetylthiocholine iodide solution. […] Assays were performed with a blank containing all components except acetylthiocholine, in order to account for non-enzymatic reaction. The reaction slopes were compared and the percent inhibition due to the presence of test compounds was calculated by the following expression: 100 − (vi/v0 × 100) where vi is the rate calculated in the presence of inhibitor and v0 is the enzyme activity.

[2] = molecular target: T3, human 5-HT4R (5-HT4(b) membrane preparations) (Homo sapiens, UniProt Q13639); assay: h5-HT4R radioligand displacement ([3H]-GR113808); type: binding; conditions: for inhibition at 1 µM: 10^−6 M, 0.5 nM [3H]-GR113808
T3 construct: purchased Eurofins HTS110M
T3 sequence (Q13639 whole entry): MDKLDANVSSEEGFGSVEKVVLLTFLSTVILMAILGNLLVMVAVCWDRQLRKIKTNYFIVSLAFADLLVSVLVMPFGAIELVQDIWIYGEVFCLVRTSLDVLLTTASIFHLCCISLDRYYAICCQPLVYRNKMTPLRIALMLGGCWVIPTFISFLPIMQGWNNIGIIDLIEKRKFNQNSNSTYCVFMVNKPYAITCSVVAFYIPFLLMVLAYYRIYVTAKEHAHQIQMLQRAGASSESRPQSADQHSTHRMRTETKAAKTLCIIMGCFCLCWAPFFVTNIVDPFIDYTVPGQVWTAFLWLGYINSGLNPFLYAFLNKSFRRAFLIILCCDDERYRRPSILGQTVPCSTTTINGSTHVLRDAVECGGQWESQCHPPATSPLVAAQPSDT
Protocol: as §1
At the end of the incubation, homogenates were filtered through Whatman GF/C filters (Alpha Biotech) presoaked with 0.5% polyethylenimine using a Brandel cell harvester. Filters were subsequently washed three times with 1 mL of ice-cold 25 mM Tris buffer (pH 7.4, 4 °C). Non-specific binding was evaluated in parallel in the presence of 30 µM serotonin.
as §2

[3] = test system: scopolamine induced deficit; design: method as in PMID 31316368; conditions: model of scopolamine induced deficit; cited from earlier work

SMILES	inhibition at 1 µM (human 5-HT6 receptors) [%]	IC50 [1] [nM]	inhibition at 1 µM [1] [%]	inhibition at 1 µM [2] [%]	Ki [2] [nM]	in vivo anti-amnesic effect [3]
Fc1ccc2c(CCNCc3cccc(OCC(F)(F)C(F)F)c3)c[nH]c2c1 [Idalopirdine, idalopirdine, reference compound]	106	–	–	–	–	–
COc1cc(N)c(Cl)cc1-c1nn(C)cc1CC1CCN(Cc2cccc(C)c2)CC1 [3b, 2-chloro-5-methoxy-4-(1-methyl-4-((1-(3-methylbenzyl)piperidin-4-yl)methyl)-1H-pyrazol-3-yl)aniline]	68	110 ± 4	76	20	–	–
COc1ccc(-c2cc(OCC3CCN(Cc4cccc(C)c4)CC3)n(C)n2)cc1OC [12d, 4-(((3-(3,4-dimethoxyphenyl)-1_methyl-1H-pyrazol-5-yl)oxy)methyl)-1-(3-methylbenzyl)piperidine]	9	–	6	9	–	–
CCCCN1CCC(CCC(=O)c2cc(Cl)c(N)cc2OC)CC1 [RS67333, reference compound]	–	–	–	100	–	–
COc1cc(NC(C)=O)c(Cl)cc1C(=O)CCC1CCN(CC2CCCCC2)CC1 [compound 7, N-(2-chloro-4-(3-(1-(cyclohexylmethyl)piperidin-4-yl)propanoyl)-5-methoxyphenyl)acetamide]	–	34 ± 5	98	94	300	–
Cc1cccc(CN2CCC(COc3cc(-c4ccccc4)nn3C)CC2)c1 [12c, 4-(((1-methyl-3-phenyl-1H-pyrazol-5-yl)oxy)methyl)-1-(3-methylbenzyl)piperidine]	6	–	15	10	–	–
COc1cc(NC(C)=O)c(Cl)cc1-c1nn(C)cc1CC1CCN(CC2CCCCC2)CC1 [compound 6, N-(2-chloro-4-(4-((1-(cyclohexylmethyl)piperidin-4-yl)methyl)-1-methyl-1H-pyrazol-3-yl)-5-methoxyphenyl)acetamide]	0	–	31	16	–	–
COc1cc(N)c(Cl)cc1C(=O)CCC1CCN(CC2CCCCC2)CC1 [Donecopride, donecopride, reference compound]	30	–	96	100	–	–
COc1cc(N)c(Cl)cc1-c1nn(C)cc1CC1CCN(CC2CCCCC2)CC1 [3a, 2-chloro-4-(4-((1-(cyclohexylmethyl)piperidin-4-yl)methyl)-1-methyl-1H-pyrazol-3-yl)-5-methoxyaniline]	2	–	34	34	–	–
COc1cc(NC(C)=O)c(Cl)cc1-c1cc(OCC2CCN(Cc3cccc(C)c3)CC2)n(C)n1 [12b, N-(2-chloro-5-methoxy-4-(1-methyl-5-((1-(3-methylbenzyl)piperidin-4-yl)methoxy)-1H-pyrazol-3-yl)phenyl)acetamide]	0	–	15	9	–	–
COc1cc(N)c(Cl)cc1C(=O)CCC1CCN(Cc2cccc(C)c2)CC1 [MR33372, reference compound]	80	–	–	98	–	anti-amnesic effect
